Results reported in patent US20060183677A1, “Novel exendin agonist formulations and methods of administration thereof” (priority 2002, published 2006).

Experiments:
[1] = tested on: Sprague-Dawley rats; assay: Insulinotropic action during intravenous glucose challenge in rats (Example 5); type: in vivo; conditions: 30 pmol/kg/min i.v.
[2] = tested on: diabetic db/db mice; assay: Glucose lowering in diabetic db/db mice (dose response); type: in vivo
Procedure: C57BLKS/J-m-db/db mice, at least 3 months of age were utilized for the study. The mice were obtained from The Jackson Laboratory and allowed to acclimate for at least one week before use. Mice were housed in groups of ten at 22° C.±1° C. with a 12:12 light:dark cycle, with lights on at 6 a.m. All animals were deprived of food for 2 hours before taking baseline blood samples. Approximately 70 μl of blood was drawn from each mouse via eye puncture, after a light anesthesia with metophane. […] Blood samples were drawn again, using the same procedure, after exactly one hour from the injections, and plasma glucose concentrations were measured. For each animal, the % change in plasma value, from baseline value, was calculated and a dose dependent relationship was evaluated using Graphpad Prizm™ software.

[3] = tested on: humans; conditions: acute treatment; cited from earlier work

In the case of GLP-1[7-36]NH2, the “60-min glucose AUC” value [1] is reported as 1096 ± 68 mM·min, the “plasma glucose after glucose injection” value ([1]; D-glucose […] i.v.) is reported as 23.7 mM and the “increase of 60-min insulin AUC versus saline-treated rats” value ([1]; n.s. versus saline) is reported as 20%. For the same substance, the “Glucose-lowering ED50” value [2] was 20.6 µg and the “acute effect on insulin sensitivity” value [3] was “appears not to immediately alter insulin sensitivity”.
